Measurements published in ChEMBL document CHEMBL5113380, “Functionalized quinoxalinones as privileged structures with broad-ranging pharmacological activities” (Eur J Med Chem, 2022).
In brackets after ≈: the same amount, converted by molar mass.

Legend:
Pseudomonas aeruginosa = assay: Antibacterial activity against Pseudomonas aeruginosa; format: functional
Staphylococcus aureus = assay: Antibacterial activity against Staphylococcus aureus; format: functional
Escherichia coli = assay: Antibacterial activity against Escherichia coli W3110; format: functional
[1] = Inhibition of Escherichia coli topoisomerase 4
[2] = Dissociation constant, pKa of the compound; format: physicochemical
Streptococcus pneumoniae = assay: Antibacterial activity against Streptococcus pneumoniae; format: functional
MCF7 = assay: Antiproliferative activity against human MCF7 cells; format: functional, cell-based
HepG2 = assay: Antiproliferative activity against human HepG2 cells; format: functional, cell-based
[3] = molecular target: Epidermal growth factor receptor (Homo sapiens, UniProt P00533); assay: Inhibition of wild-type EGFR (unknown origin)
[4] = molecular target: Epidermal growth factor receptor (Homo sapiens, UniProt P00533, L858R); assay: Inhibition of EGFR L858R mutant (unknown origin)
HCT-116 = assay: Antiproliferative activity against human HCT-116 cells; format: functional, cell-based
WI-38 = assay: Antiproliferative activity against human WI-38 cells; format: functional, cell-based
[5] = molecular target: Bromodomain-containing protein 4 (Homo sapiens, UniProt O60885); assay: Inhibition of BRD4 (unknown origin) using histone-H4 as substrate incubated for 15 mins and measured after 1 hr by AlphaScreen assay
[6] = molecular target: T1, Glutamate receptor ionotropic AMPA (Homo sapiens, UniProt P42261+P42262+P42263+P48058); assay: Displacement of [3H]AMPA from AMPA receptor (unknown origin); format: protein-complex assay
[7] = Inhibition of KA-induced cytotoxicity in human hippocampal cell culture; format: toxicity, cell-based; details: Hippocampal neurone
[8] = molecular target: T1, Glutamate receptor ionotropic AMPA; assay: Displacement of [3H]CNQX from AMPA receptor (unknown origin); format: protein-complex assay
[9] = molecular target: T1, Glutamate receptor ionotropic AMPA; assay: Displacement of [3H]kainic acid from AMPA receptor (unknown origin); format: protein-complex assay
[10] = molecular target: T2, Vascular endothelial growth factor receptor 2 (Homo sapiens, UniProt P35968); assay: Inhibition of VEGFR2 (unknown origin) at 1 uM relative to control
[11] = Antiproliferative activity against human 3AO cells; format: functional, cell-based
PC-3 = assay: Antiproliferative activity against human PC-3 cells; format: functional, cell-based
K562 = assay: Antiproliferative activity against human K562 cells; format: functional, cell-based
HeLa = assay: Antiproliferative activity against human HeLa cells; format: functional, cell-based
BEAS-2B = assay: Antiproliferative activity against human BEAS-2B cells; format: functional, cell-based
[12] = Displacement of [3H]AMPA from NMDA receptor (unknown origin); format: protein-complex assay, Homo sapiens
[13] = molecular target: Glutamate [NMDA] receptor; assay: Displacement of [3H]MDL from NMDA receptor (unknown origin); format: protein-complex assay, Homo sapiens
[14] = molecular target: T2, Vascular endothelial growth factor receptor 2
[15] = Inhibition of ALR2 (unknown origin); parameters: species or system Homo sapiens
[16] = Inhibition of ALR1 (unknown origin) relative to control; parameters: concentration or dose not given beside the values; details: Homo sapiens; concentration not given here
[17] = Antioxidant activity assessed as DPPH radical scavenging activity at 100 uM; format: functional
[18] = Inhibition of lipid peroxidation at 100 uM by measuring MDA concentration; format: functional
[19] = Antioxidant activity assessed as DPPH radical scavenging activity; format: functional
[20] = Antioxidant activity assessed as H2O2 radical scavenging activity; format: functional
[21] = Antioxidant activity assessed as NO radical scavenging activity; format: functional

Epidermal growth factor receptor (Homo sapiens, UniProt P00533), sequence (P00533 whole entry): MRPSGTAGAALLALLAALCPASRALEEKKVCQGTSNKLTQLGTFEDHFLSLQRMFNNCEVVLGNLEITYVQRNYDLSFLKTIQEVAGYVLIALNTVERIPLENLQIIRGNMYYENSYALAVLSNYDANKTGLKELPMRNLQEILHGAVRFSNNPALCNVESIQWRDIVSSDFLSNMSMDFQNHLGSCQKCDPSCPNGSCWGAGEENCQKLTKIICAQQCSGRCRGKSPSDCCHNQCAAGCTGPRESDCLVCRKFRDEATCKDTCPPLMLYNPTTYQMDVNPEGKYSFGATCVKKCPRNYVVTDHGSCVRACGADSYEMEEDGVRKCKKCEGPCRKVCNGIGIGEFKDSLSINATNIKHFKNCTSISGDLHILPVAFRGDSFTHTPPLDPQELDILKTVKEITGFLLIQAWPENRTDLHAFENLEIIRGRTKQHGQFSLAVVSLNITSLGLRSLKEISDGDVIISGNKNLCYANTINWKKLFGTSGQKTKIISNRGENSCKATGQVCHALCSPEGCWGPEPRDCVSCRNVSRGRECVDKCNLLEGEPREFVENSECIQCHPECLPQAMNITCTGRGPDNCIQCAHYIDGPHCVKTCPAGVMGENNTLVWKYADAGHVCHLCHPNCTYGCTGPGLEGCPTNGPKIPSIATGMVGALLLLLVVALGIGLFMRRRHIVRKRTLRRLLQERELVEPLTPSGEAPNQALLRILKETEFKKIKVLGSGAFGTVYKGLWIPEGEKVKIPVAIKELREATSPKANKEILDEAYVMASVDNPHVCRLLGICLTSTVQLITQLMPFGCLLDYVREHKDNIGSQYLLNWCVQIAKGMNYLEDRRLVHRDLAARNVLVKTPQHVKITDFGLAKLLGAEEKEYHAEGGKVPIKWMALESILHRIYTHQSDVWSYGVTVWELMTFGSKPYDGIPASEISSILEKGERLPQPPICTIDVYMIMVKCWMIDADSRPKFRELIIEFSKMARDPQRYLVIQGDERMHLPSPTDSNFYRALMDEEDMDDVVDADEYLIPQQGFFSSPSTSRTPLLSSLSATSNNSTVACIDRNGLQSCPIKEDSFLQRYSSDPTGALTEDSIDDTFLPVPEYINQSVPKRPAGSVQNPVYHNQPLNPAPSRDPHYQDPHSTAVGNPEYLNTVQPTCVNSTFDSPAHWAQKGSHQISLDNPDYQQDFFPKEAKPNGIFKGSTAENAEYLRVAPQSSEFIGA
Epidermal growth factor receptor (Homo sapiens, UniProt P00533, L858R), sequence (P00533 25-1210 L858R limits assumed): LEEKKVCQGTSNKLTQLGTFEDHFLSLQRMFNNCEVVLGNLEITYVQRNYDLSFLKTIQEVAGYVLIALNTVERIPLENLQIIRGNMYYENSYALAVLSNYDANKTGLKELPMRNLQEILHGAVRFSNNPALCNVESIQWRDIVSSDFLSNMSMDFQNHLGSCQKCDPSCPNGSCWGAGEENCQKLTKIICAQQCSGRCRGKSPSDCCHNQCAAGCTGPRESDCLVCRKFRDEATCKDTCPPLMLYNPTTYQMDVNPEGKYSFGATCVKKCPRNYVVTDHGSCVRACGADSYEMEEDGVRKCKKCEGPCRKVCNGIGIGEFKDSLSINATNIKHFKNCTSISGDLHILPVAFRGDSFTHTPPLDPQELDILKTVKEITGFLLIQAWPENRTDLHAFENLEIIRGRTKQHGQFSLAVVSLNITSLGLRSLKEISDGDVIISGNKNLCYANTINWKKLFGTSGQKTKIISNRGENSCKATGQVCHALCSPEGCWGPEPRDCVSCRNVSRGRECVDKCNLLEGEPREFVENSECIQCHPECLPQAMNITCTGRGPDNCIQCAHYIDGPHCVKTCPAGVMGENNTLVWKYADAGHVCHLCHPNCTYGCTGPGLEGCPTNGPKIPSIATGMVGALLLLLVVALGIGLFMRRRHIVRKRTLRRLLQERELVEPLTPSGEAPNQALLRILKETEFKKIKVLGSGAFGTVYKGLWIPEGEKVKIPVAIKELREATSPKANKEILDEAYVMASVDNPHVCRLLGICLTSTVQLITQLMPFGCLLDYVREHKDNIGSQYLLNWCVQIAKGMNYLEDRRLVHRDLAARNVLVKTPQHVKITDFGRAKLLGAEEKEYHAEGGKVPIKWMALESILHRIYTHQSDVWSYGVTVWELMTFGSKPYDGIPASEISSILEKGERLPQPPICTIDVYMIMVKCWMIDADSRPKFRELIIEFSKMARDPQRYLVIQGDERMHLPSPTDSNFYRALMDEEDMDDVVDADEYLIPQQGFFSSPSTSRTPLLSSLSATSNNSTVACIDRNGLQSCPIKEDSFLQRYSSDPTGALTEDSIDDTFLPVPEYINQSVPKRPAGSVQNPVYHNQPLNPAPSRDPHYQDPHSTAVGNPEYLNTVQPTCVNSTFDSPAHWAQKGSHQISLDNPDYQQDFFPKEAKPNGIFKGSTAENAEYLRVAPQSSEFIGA
T2 sequence (P35968 whole entry): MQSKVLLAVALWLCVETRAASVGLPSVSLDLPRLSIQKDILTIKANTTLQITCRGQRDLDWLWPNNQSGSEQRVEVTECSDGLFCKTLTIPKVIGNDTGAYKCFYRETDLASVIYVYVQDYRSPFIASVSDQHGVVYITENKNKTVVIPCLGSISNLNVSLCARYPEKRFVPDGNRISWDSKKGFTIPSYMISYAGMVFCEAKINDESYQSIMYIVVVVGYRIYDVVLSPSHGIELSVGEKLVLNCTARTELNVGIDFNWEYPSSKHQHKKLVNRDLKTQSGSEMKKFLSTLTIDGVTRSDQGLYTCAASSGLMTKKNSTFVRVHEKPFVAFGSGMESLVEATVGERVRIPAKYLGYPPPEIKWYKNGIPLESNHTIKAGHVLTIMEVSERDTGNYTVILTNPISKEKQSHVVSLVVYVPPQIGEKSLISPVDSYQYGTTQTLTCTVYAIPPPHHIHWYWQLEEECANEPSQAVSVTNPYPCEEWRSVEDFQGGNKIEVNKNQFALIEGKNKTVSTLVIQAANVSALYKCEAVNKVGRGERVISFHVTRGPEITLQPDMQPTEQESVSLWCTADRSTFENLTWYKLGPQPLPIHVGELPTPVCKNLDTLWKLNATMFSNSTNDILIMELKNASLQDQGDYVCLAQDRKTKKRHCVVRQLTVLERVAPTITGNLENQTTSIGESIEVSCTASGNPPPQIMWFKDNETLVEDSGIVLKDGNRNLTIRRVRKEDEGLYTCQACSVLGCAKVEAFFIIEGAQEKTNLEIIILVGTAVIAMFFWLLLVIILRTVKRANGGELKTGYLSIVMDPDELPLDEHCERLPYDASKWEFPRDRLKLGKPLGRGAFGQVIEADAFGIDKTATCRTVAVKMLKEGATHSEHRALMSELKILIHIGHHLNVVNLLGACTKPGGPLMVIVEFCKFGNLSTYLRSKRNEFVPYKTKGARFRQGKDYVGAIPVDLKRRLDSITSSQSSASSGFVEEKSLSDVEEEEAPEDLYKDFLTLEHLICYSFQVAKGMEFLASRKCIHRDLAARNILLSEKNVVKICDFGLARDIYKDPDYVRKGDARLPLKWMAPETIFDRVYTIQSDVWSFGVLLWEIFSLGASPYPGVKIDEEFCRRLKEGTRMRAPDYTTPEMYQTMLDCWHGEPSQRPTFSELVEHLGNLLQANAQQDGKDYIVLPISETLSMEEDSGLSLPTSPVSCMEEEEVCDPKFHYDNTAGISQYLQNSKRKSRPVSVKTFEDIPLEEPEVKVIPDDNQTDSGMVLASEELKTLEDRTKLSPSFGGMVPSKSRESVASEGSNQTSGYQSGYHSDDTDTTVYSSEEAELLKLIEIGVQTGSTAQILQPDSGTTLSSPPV

N#Cc1ccc2ccc(=O)n(CCN3CC[C@H](NCc4cc5c(cn4)OCCO5)[C@H](F)C3)c2c1
MIC (Pseudomonas aeruginosa): > 8 µg/mL | MIC (Staphylococcus aureus): 0.06 µg/mL (≈ 0.129 µM) | MIC (Escherichia coli): 4 µg/mL (≈ 8.63 µM) | IC50 [1]: 0.048 µM | pKa [2]: 4.47 | MIC (Streptococcus pneumoniae): 0.13 µg/mL (≈ 0.28 µM)

COC(=O)CCc1nc2ccc(Br)cc2[nH]c1=O
IC50 (MCF7): 17.9 µM | IC50 (HepG2): 15.6 µM | IC50 [3]: 0.957 µM | IC50 [4]: 0.0754 µM | IC50 (HCT-116): 13.8 µM | IC50 (WI-38): 142 µM

Cc1noc(C)c1-c1ccc2c(c1)C(Cc1ccccc1)NC(=O)N2C (stereo not given)
IC50 [5]: 0.032 µM

O=c1[nH]c2cc(C(F)(F)F)c(-n3ccnc3)nc2n2ccnc12
Ki [6]: 0.066 µM | IC50 [7]: 0.32 µM

O=c1[nH]c2cc([N+](=O)[O-])c([N+](=O)[O-])cc2[nH]c1=O [DNQX]
IC50 [6]: 0.93 µM | IC50 [8]: 1.4 µM | IC50 [9]: 2.2 µM

N#Cc1ccc2c(c1)N(CCN1CCC(NCc3ccc4c(n3)NC(=O)CO4)CC1)C(=O)CO2
MIC (Pseudomonas aeruginosa): 2 µg/mL (≈ 4.32 µM) | MIC (Staphylococcus aureus): 0.13 µg/mL (≈ 0.281 µM) | MIC (Escherichia coli): 0.25 µg/mL (≈ 0.541 µM) | IC50 [1]: 0.0032 µM | MIC (Streptococcus pneumoniae): 0.5 µg/mL (≈ 1.08 µM)

O=C(Cn1c(=O)c(/C=C/c2ccncc2)nc2ccccc21)Nc1ccc(Cl)cc1
inhibition [10]: 44% | IC50 (MCF7): > 100 µM | IC50 [11]: > 100 µM | IC50 (PC-3): > 100 µM | IC50 (K562): 50.4 µM | IC50 (HeLa): > 100 µM | IC50 (BEAS-2B): > 100 µM

O=C(NCc1cc(Br)cc2nc(O)c(O)nc12)c1cccs1
IC50 [12]: 1.6 µM | IC50 [13]: 0.01 µM

Cc1cc2[nH]c(=O)c(=O)[nH]c2cc1C=O
IC50 [6]: 11 µM | IC50 [8]: 4 µM | IC50 [9]: 54 µM

O=c1[nH]c2cc(CO)c(CO)cc2[nH]c1=O
IC50 [6]: 9.3 µM | IC50 [8]: 9.2 µM | IC50 [9]: > 100 µM

COC(=O)CCc1nc2ccc(Cl)cc2[nH]c1=O
IC50 (MCF7): 23.3 µM | IC50 (HepG2): 46.2 µM | IC50 [3]: 1.34 µM | IC50 [4]: 0.0828 µM | IC50 (HCT-116): 31.6 µM | IC50 (WI-38): 242 µM

CCc1cnc2c(=O)[nH]c3cc([N+](=O)[O-])c(-n4ccnc4)nc3n12
Ki [6]: 0.02 µM | IC50 [7]: 0.3 µM

O=C(NCc1cc(Br)cc2[nH]c(=O)c(=O)[nH]c12)c1ccsc1
IC50 [12]: 2 µM | IC50 [13]: 0.01 µM

O=C(Cc1ccsc1)NCc1cc(Br)cc2nc(O)c(O)nc12
IC50 [12]: 11.3 µM | IC50 [13]: 0.01 µM

O=c1[nH]c2cc([N+](=O)[O-])c(-n3ccnc3)nc2n2ccnc12
Ki [6]: 0.057 µM | IC50 [7]: 0.3 µM

COc1ccc2ncc(=O)n(CCN3CCC(NCc4cc5c(cn4)OCCO5)CC3)c2c1
MIC (Pseudomonas aeruginosa): 4 µg/mL (≈ 8.86 µM) | MIC (Staphylococcus aureus): 0.02 µg/mL (≈ 0.0443 µM) | MIC (Escherichia coli): 0.5 µg/mL (≈ 1.11 µM) | IC50 [1]: 0.005 µM | MIC (Streptococcus pneumoniae): 0.06 µg/mL (≈ 0.133 µM)

NNC(=O)/C=C1/Nc2ccc(Br)cc2NC1=O
IC50 (MCF7): 16.9 µM | IC50 (HepG2): 18.6 µM | IC50 [3]: 1.55 µM | IC50 [4]: 0.0873 µM | IC50 (HCT-116): 28.4 µM | IC50 (WI-38): 227 µM

O=C(Cn1c(=O)c(/C=C/c2ccncc2)nc2ccccc21)Nc1ccc(F)cc1
inhibition [10]: 6% | IC50 (MCF7): 49 µM | IC50 [11]: > 100 µM | IC50 (PC-3): 59.9 µM | IC50 (K562): > 100 µM | IC50 (HeLa): > 100 µM | IC50 (BEAS-2B): > 100 µM

Cc1ccc(O)c(NC(=O)c2ccc(NC(=O)Cn3c(=O)c4nncn4c4ccccc43)cc2)c1
IC50 [14]: 0.0039 µM | IC50 (MCF7): 8.1 µM | IC50 (HepG2): 7.8 µM

O=C(O)Cn1c(=O)c(Oc2ccc(O)cc2)nc2cc(F)ccc21
IC50 [15]: 0.0196 µM | inhibition [16]: 11.8% | Activity [17]: 23.7% | inhibition [18]: 14.3%

O=C(Cn1c(=O)c(/C=C/c2ccncc2)nc2ccccc21)Nc1ccc(Cl)c(Cl)c1
inhibition [10]: 56% | IC50 (MCF7): 47.6 µM | IC50 [11]: > 100 µM | IC50 (PC-3): > 100 µM | IC50 (K562): > 100 µM | IC50 (HeLa): > 100 µM | IC50 (BEAS-2B): > 100 µM

O=C(Cn1c(=O)c2nncn2c2ccccc21)Nc1ccc(C(=O)Nc2cc(Cl)ccc2Cl)cc1
IC50 [14]: 0.0048 µM | IC50 (MCF7): 10.3 µM | IC50 (HepG2): 8.4 µM

Cc1ccc(-n2cc(COc3ccc(/C=N/NC(=O)Cn4c(=O)c(C)nc5ccccc54)cc3)nn2)cc1
IC50 [19]: 26.04 µg/mL (≈ 51.3 µM) | IC50 [20]: 52.08 µg/mL (≈ 103 µM) | IC50 [21]: 48.07 µg/mL (≈ 94.7 µM)
